Patent US12098352B2, “Stem cell-based lung-on-chip models” (EMULATE, INC., priority 2018, dated 2024)
“Also recorded” adds a separate entry of the source.

What was measured:
ICAM1 = ICAM1 immunostaining of endothelial cells (HMECs) lining the vascular surface of the Chip; format: cell-based, human
Procedure: FIG. 22A Effect of LPS on Vascular Expression of ICAM1. […] Representative images (20×) of endothelial cells (HMECs) lining the vascular surface of the Chip fixed and stained for ICAM1 (red) at 24 h post LPS treatment of the alveolar epithelial compartment. Nuclei are colored blue. […] IL-6, il-8 and MCP-1 have 40-90 fold increases in relation to untreated controls. FIG. 22C Detection of exemplary Lung-Specific Cytokines and Chemokines, IL-6; IL-8; MCP-1 and RANTES, in response to LPS stimulation. Co-cultures of Epithelium/Fibroblasts/Vasculature induced higher levels of cytokines than co-cultures of Epithelium/Vasculature; Fibroblasts/Vasculature or Vasculature alone.
Interconnectivity refers to the observation that adding a compound to the epithelial side may induce a cytokine mediated response in the endothelial side. […] In other words, inflamed epithelial cells modulate function of the endothelial cells.
Open-Top Organ-Chips were fixed in 10% neutral buffered formalin. Endothelial cells were stained inside the chip by performinutesg the immunofluorescence steps described below directly inside the microfluidic channel. Stroma equivalents were stained as described by the step below inside the chip or alternatively extracted from the chip and processed for immunohistochemistry analysis. […]

[1] = test system: cellular monolayer barrier; experiment: Barrier function in static transwell; format: cell-based; settings: doses up to 100 ng/ml LPS, 10 mM H2O2

Lipopolysaccharide [LPS] was tested, and the “ICAM expression, endothelial cells exposed directly” value (ICAM1; LPS directly on endothelial cells, no epithelium) was “does not induce expression of ICAM”, the “vascular expression of ICAM1” value (ICAM1; LPS on the alveolar epithelial compartment, 24 h) was “induced vascular expression of ICAM1; also recorded: induces expression of ICAM on endothelial cells; also recorded: induces ICAM1 expression only in presence of epithelial cells” and the “loss of barrier function” value [1] was “dose dependent loss of barrier function”.
